The text below walks through data of patent US11180462B2, “Microbiocidal oxadiazole derivatives” (SYNGENTA PARTICIPATIONS AG, priority 2015, dated 2021).

Bounds are passed on as bounds.

Assay [1] relates to Puccinia recondita f. Sp. Tritici. Briefly: Fungicidal activity against Puccinia recondita f. sp. tritici / wheat / leaf disc preventative (brown rust). The following applies: foliar, 200 ppm in the applied formulation, wheat leaf segments, preventative, compared to untreated control leaf disks, read-out: disease control. In kind it is in vivo. The method, then:
Leaf disks or leaf segments of various plant species are cut from plants grown in a greenhouse. The cut leaf disks or segments are placed in multiwell plates (24-well format) onto water agar. The leaf disks are sprayed with a test solution before (preventative) or after (curative) inoculation. Compounds to be tested are prepared as DMSO solutions (max. 10 mg/ml) which are diluted to the appropriate concentration with 0.025% Tween20 just before spraying. The inoculated leaf disks or segments are incubated under defined conditions (temperature, relative humidity, light, etc.) according to the respective test system. A single evaluation of disease level is carried out 3 to 14 days after inoculation, depending on the pathosystem. Percent disease control relative to the untreated check leaf disks or segments is then calculated.
Fungicidal Activity Against Puccinia recondita f. Sp. Tritici/Wheat/Leaf Disc Preventative (Brown Rust)
Wheat leaf segments cv. Kanzler were placed on agar in multiwell plates (24-well format) and sprayed with the formulated test compound diluted in water. The leaf disks were inoculated with a spore suspension of the fungus 1 day after application. The inoculated leaf segments were incubated at 19° C. and 75% relative humidity (rh) under a light regime of 12 hours light/12 hours darkness in a climate cabinet and the activity of a compound was assessed as percent disease control compared to untreated when an appropriate level of disease damage appears in untreated check leaf segments (7 to 9 days after application).
The following compounds at 200 ppm in the applied formulation give at least 80% disease control in this test when compared to untreated control leaf disks under the same conditions, which show extensive disease development.

Assay [2] relates to Glomerella lagenarium (Colletotrichum lagenarium). Briefly: Fungicidal activity against Glomerella lagenarium (Colletotrichum lagenarium) liquid culture / cucumber / preventative (anthracnose). In kind it is cell-based. The following applies: Colletotrichum orbiculare; 20 ppm in the applied formulation; liquid culture (PDB), growth inhibition measured photometrically after 3 to 4 days; compared to untreated control; read-out: disease control. The essentials: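 Photometric read-out of fungal growth after 2–7 days, expressed as percent antifungal activity versus untreated check. Cryo-stored conidia in PDB; compound at 20 ppm; dark, 24 °C, 96% RH.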

Regarding `O=C(c1ccoc1)N(Cc1ccc(-c2noc(C(F)(F)F)n2)cc1)CC1CCCO1` (centres unmarked) [Compound 1.449, N-(tetrahydrofuran-2-ylmethyl)-N-[[4-[5-(trifluoromethyl)-1,2,4-oxadiazol-3-yl]phenyl]methyl]-furan-3-carboxamide], the pest or weed control at 200 ppm in assay [1] was not below 80%. Also, in assay [2], the inhibition of growth at 20 ppm was not below 80%.

With `CC=CC(=O)N(OC)C(C)c1ccc(-c2noc(C(F)(F)F)n2)cc1` (centres unmarked) [Compound 1.250, N-methoxy-N-[1-[4-[5-(trifluoromethyl)-1,2,4-oxadiazol-3-yl]phenyl]ethyl]but-2-enamide], the pest or weed control at 200 ppm in assay [1] is not below 80%. The inhibition of growth at 20 ppm in assay [2] was not below 80%.

As to `COc1ccccc1CC(=O)N(Cc1ccc(-c2noc(C(F)(F)F)n2)cc1)C1CC1` [Compound 1.113, N-cyclopropyl-2-(2-methoxyphenyl)-N-[[4-[5-(trifluoromethyl)-1,2,4-oxadiazol-3-yl]phenyl]methyl]-acetamide], the pest or weed control at 200 ppm in assay [1] is not below 80%. The inhibition of growth at 20 ppm in assay [2] is not below 80%.

As for `C#CCN(Cc1ccc(-c2noc(C(F)(F)F)n2)cc1)C(=O)c1cc(Cl)ccc1O` [Compound 1.184, 5-chloro-2-hydroxy-N-prop-2-ynyl-N-[[4-(5-(trifluoromethyl)-1,2,4-oxadiazol-3-yl]phenyl]methyl]-benzamide], in assay [1], the pest or weed control at 200 ppm was not below 80%. Besides, the inhibition of growth at 20 ppm in assay [2] is not below 80%.

Regarding `O=C(c1ccccc1)N(Cc1ccc(-c2noc(C(F)(F)F)n2)cc1)CC1CC1` [Compound 1.247, N-(cyclopropylmethyl)-N-[[4-[5-(trifluoromethyl)-1,2,4-oxadiazol-3-yl]phenyl]methyl]-benzamide], in assay [1], the pest or weed control at 200 ppm is not below 80%. Moreover, the inhibition of growth at 20 ppm in assay [2] is not below 80%.

Turning to `CCCON(Cc1ccc(-c2noc(C(F)(F)F)n2)cc1)C(=O)C1(C#N)CC1` [Compound 1.313, 1-cyano-N-propoxy-N-[[4-[5-(trifluoromethyl)-1,2,4-oxadiazol-3-yl]phenyl]methyl]-cyclopropane-carboxamide], in assay [1], the pest or weed control at 200 ppm is not below 80%. Also, the inhibition of growth at 20 ppm in assay [2] was not below 80%.

As for `COCCN(Cc1ccc(-c2noc(C(F)(F)F)n2)cc1)C(=O)C=CC(C)=O` [Compound 1.352, N-(2-methoxyethyl)-4-oxo-N-[[4-[5-(trifluoromethyl)-1,2,4-oxadiazol-3-yl]phenyl]methyl]-pent-2-enamide], the pest or weed control at 200 ppm in assay [1] is not below 80%. For the same molecule, the inhibition of growth at 20 ppm in assay [2] is not below 80%.

Turning to `O=C(N(Cc1ccc(-c2noc(C(F)(F)F)n2)cc1)CC1CCCO1)C1(F)CC1` (centres unmarked) [Compound 1.436, 1-fluoro-N-(tetrahydrofuran-2-ylmethyl)-N-[[4-[5-(trifluoromethyl)-1,2,4-oxadiazol-3-yl]phenyl]methyl]-cyclopropane-carboxamide], the pest or weed control at 200 ppm in assay [1] is not below 80%. For the same molecule, in assay [2], the inhibition of growth at 20 ppm was not below 80%.

Turning to `CON(C(=O)C=C(F)CCl)C(C)c1ccc(-c2noc(C(F)(F)F)n2)cc1` (centres unmarked) [Compound 1.252, 4-chloro-3-fluoro-N-methoxy-N-[1-[4-[5-(trifluoromethyl)-1,2,4-oxadiazol-3-yl]phenyl]ethyl]but-2-enamide], in assay [1], the pest or weed control at 200 ppm was not below 80%. Moreover, the inhibition of growth at 20 ppm in assay [2] was not below 80%.

Regarding `C#CCCC(=O)N(Cc1ccc(-c2noc(C(F)(F)F)n2)cc1)CC1CC1` [Compound 1.205, N-(cyclopropylmethyl)-N-[[4-[5-(trifluoromethyl)-1,2,4-oxadiazol-3-yl]phenyl]methyl]pent-4-ynamide], the pest or weed control at 200 ppm in assay [1] was not below 80%. Further, the inhibition of growth at 20 ppm in assay [2] is not below 80%.

`Cc1cccc(C)c1C(=O)N(Cc1ccc(-c2noc(C(F)(F)F)n2)cc1)C1CC1` [Compound 1.105, N-cyclopropyl-2,6-dimethyl-N-[[4-[5-(trifluoromethyl)-1,2,4-oxadiazol-3-yl]phenyl]methyl]-benzamide]: the pest or weed control at 200 ppm in assay [1] was not below 80%. Further, the inhibition of growth at 20 ppm in assay [2] is not below 80%.

For `O=C(Cc1cccnc1)N(Cc1ccc(-c2noc(C(F)(F)F)n2)cc1)CC1CC1` [Compound 1.214, N-(cyclopropylmethyl)-2-(3-pyridyl)-N-[[4-[5-(trifluoromethyl)-1,2,4-oxadiazol-3-yl]phenyl]methyl]-acetamide], the pest or weed control at 200 ppm in assay [1] was not below 80%. Moreover, in assay [2], the inhibition of growth at 20 ppm was not below 80%.

For `CCCON(Cc1ccc(-c2noc(C(F)(F)F)n2)cc1)C(=O)COC(C)=O` [Compound 1.306, [2-oxo-2-[propoxy-[[4-[5-(trifluoromethyl)-1,2,4-oxadiazol-3-yl]phenyl]methyl]-amino]ethyl] acetate], the pest or weed control at 200 ppm in assay [1] was not below 80%. Also, the inhibition of growth at 20 ppm in assay [2] was not below 80%.

Consider `CCCCC(=O)N(Cc1ccc(-c2noc(C(F)(F)F)n2)cc1)CC1CCCO1` (centres unmarked) [Compound 1.453, N-(tetrahydrofuran-2-ylmethyl)-N-[[4-[5-(trifluoromethyl)-1,2,4-oxadiazol-3-yl]phenyl]methyl]-pentanamide], for which the pest or weed control at 200 ppm in assay [1] is not below 80%. Further, in assay [2], the inhibition of growth at 20 ppm is not below 80%.

In the case of `O=C(CCl)N(Cc1ccc(-c2noc(C(F)(F)F)n2)cc1)Cc1ccco1` [Compound 1.462, 2-chloro-N-(2-furylmethyl)-N-[[4-[5-(trifluoromethyl)-1,2,4-oxadiazol-3-yl]phenyl]methyl]-acetamide], the pest or weed control at 200 ppm in assay [1] is not below 80%. Besides, the inhibition of growth at 20 ppm in assay [2] is not below 80%.

For `CCCON(Cc1ccc(-c2noc(C(F)(F)F)n2)cc1)C(=O)C1CCCCO1` (centres unmarked) [Compound 1.283, N-propoxy-N-[[4-[5-(trifluoromethyl)-1,2,4-oxadiazol-3-yl]phenyl]methyl]-tetrahydropyran-2-carboxamide], in assay [1], the pest or weed control at 200 ppm is not below 80%. Further, the inhibition of growth at 20 ppm in assay [2] is not below 80%.

For `CC(C)(CCl)C(=O)N(Cc1ccc(-c2noc(C(F)(F)F)n2)cc1)CC1CC1` [Compound 1.219, 3-chloro-N-(cyclopropylmethyl)-2,2-dimethyl-N-[[4-[5-(trifluoromethyl)-1,2,4-oxadiazol-3-yl]phenyl]methyl]-propanamide], the pest or weed control at 200 ppm in assay [1] is not below 80%. Further, the inhibition of growth at 20 ppm in assay [2] was not below 80%.

`CON(C(=O)C1CC1(F)F)C(C)c1ccc(-c2noc(C(F)(F)F)n2)cc1` (centres unmarked) [Compound 1.251, 2,2-difluoro-N-methoxy-N-[1-[4-[5-(trifluoromethyl)-1,2,4-oxadiazol-3-yl]phenyl]ethyl]-cyclopropane-carboxamide]: in assay [1], the pest or weed control at 200 ppm was not below 80%. Also, the inhibition of growth at 20 ppm in assay [2] was not below 80%.

Regarding `C#CCN(C)C(=O)N(CC)Cc1ccc(-c2noc(C(F)(F)F)n2)cc1` [Compound 3.96, 1-ethyl-3-methyl-3-prop-2-ynyl-1-[[4-[5-(trifluoromethyl)-1,2,4-oxadiazol-3-yl]phenyl]methyl]urea], the pest or weed control at 200 ppm in assay [1] is not below 80%. For the same molecule, the inhibition of growth at 20 ppm in assay [2] is not below 80%.

`C#CCN(Cc1ccc(-c2noc(C(F)(F)F)n2)cc1)C(=O)CC1CCCC1` [Compound 1.152, 2-cyclopentyl-N-prop-2-ynyl-N-[[4-[5-(trifluoromethyl)-1,2,4-oxadiazol-3-yl]phenyl]methyl]-acetamide]: the pest or weed control at 200 ppm in assay [1] was not below 80%. Besides, the inhibition of growth at 20 ppm in assay [2] is not below 80%.

`CCC(C)N(Cc1ccc(-c2noc(C(F)(F)F)n2)cc1)C(=O)C1CCCC1` (centres unmarked) [Compound 1.376, N-sec-butyl-N-[[4-[5-(trifluoromethyl)-1,2,4-oxadiazol-3-yl]phenyl]methyl]-cyclopentane-carboxamide]: in assay [1], the pest or weed control at 200 ppm is not below 80%. Besides, in assay [2], the inhibition of growth at 20 ppm is not below 80%.

Regarding `O=C(c1ccccc1Cl)N(Cc1ccc(-c2noc(C(F)(F)F)n2)cc1)C1CC1` [Compound 1.120, 2-chloro-N-cyclopropyl-N-[[4-[5-(trifluoromethyl)-1,2,4-oxadiazol-3-yl]phenyl]methyl]-benzamide], the pest or weed control at 200 ppm in assay [1] is not below 80%. Also, the inhibition of growth at 20 ppm in assay [2] is not below 80%.

For `CC#CCOC(=O)N(Cc1ccc(-c2noc(C(F)(F)F)n2)cc1)OC` [Compound 2.7, but-2-ynyl N-methoxy-N-[[4-[5-(trifluoromethyl)-1,2,4-oxadiazol-3-yl]phenyl]methyl]-carbamate], the pest or weed control at 200 ppm in assay [1] is not below 80%. Further, the inhibition of growth at 20 ppm in assay [2] was not below 80%.

With `CCCON(Cc1ccc(-c2noc(C(F)(F)F)n2)cc1)C(=O)COC` [Compound 1.287, 2-methoxy-N-propoxy-N-[[4-[5-(trifluoromethyl)-1,2,4-oxadiazol-3-yl]phenyl]methyl]-acetamide], the pest or weed control at 200 ppm in assay [1] was not below 80%. Moreover, in assay [2], the inhibition of growth at 20 ppm is not below 80%.

Regarding `CON(Cc1c(F)cc(-c2noc(C(F)(F)F)n2)cc1F)C(=O)c1ccccc1Cl` [Compound 1.598, 2-chloro-N-[[2,6-difluoro-4-[5-(trifluoromethyl)-1,2,4-oxadiazol-3-yl]phenyl]methyl]-N-methoxy-benzamide], the pest or weed control at 200 ppm in assay [1] is not below 80%. The inhibition of growth at 20 ppm in assay [2] is not below 80%.
